Reference: patent US7745459B2, “Quinolizinone compound and use thereof as HIV integrase inhibitor” (Japan Tobacco Inc., priority 2004, dated 2010)

Target: T1, HIV integrase (Human immunodeficiency virus type 1 group M subtype B, UniProt P12497, F1332H)
T1 construct: HIV integrase full length gene; made in house; host or cells: Escherichia coli BL21 (DE3)
Test: Determination of enzyme (HIV integrase) inhibitory activity
Type: biochemical
Conditions: recombinant integrase protein (phenylalanine at codon 185 substituted by histidine); donor/target DNA, absorbance at 450 nm; read-out: Anti-integrase activity (IC50 value)
From the text: The following explains evaluation methods of the HIV integrase inhibitory activity of the compound of the present invention.
HIV integrase full length gene (J. Virol., 67, 425-437 (1993)) in which phenylalanine at codon 185 was substituted by histidine, was inserted between the restriction enzyme NdeI and XhoI sites of plasmid pET21a(+) (Novagen), whereby an integrase expression vector pET21a-INH was constructed.
Escherichia coli recombinant BL21 (DE3) transformed with plasmid pET21a-INH obtained in (i) was shake cultured at 37° C. in a liquid medium containing ampicillin. When the culture reached the logarithmic growth phase, isopropyl-β-D-thiogalactopyranoside was added to promote expression of integrase gene. The culture was continued for 3 hr to promote accumulation of the integrase protein. The recombinant E. coli was collected in pellets by centrifugal separation and preserved at −80° C.
The E. coli was suspended in Lysis buffer (20 mM HEPES (pH 7.5), 5 mM DTT, 10 mM CHAPS, 10% glycerol) containing 1 M sodium chloride and subjected to repeat pressurization and depressurization for rupture, and centrifugal separation at 4° C., 40,000×g, 60 min to recover a water-soluble fraction (supernatant). This was diluted 10-fold with Lysis buffer free of sodium chloride, mixed with SP-Sepharose (Pharmacia Corporation) and stirred at 4° C. for 60 min to allow adsorption of integrase protein to the resin. The resin was washed with Lysis buffer containing 100 mM sodium chloride and the integrase protein was eluted with Lysis buffer containing 1 M sodium chloride.
The eluted integrase protein solution was subjected to a Superdex 75 (Pharmacia Corporation) column for gel filtration. The protein was eluted with Lysis buffer containing 1 M sodium chloride.
The obtained fractions of the integrase protein were collected and preserved at −80° C.
The following DNA synthesized by Greiner was dissolved in TE buffer (10 mM Tris-hydrochloric acid (pH 8.0), 1 mM EDTA) and mixed with donor DNA, target DNA, and each complementary strand (+ and − strands) to 1 μM. The mixture was heated at 95° C. for 5 min, 80° C. for 10 min, 70° C. for 10 min, 60° C. for 10 min, 50° C. for 10 min and 40° C. for 10 min and kept at 25° C. to give a double stranded DNA, which was used for the test.
The donor DNA was diluted with TE buffer to 10 nM, of which 50 μl was added to each well of streptavidin-coated microtiter plate (Roche) and allowed to adsorb at 37° C. for 60 min. The plate was washed with phosphate buffer (Dulbecco's PBS, Sanko Junyaku Co., Ltd.) containing 0.1% Tween 20 and phosphate buffer. Then, a reaction mixture (70 μl) having the following composition, a test substance (10 μl) diluted with the reaction mixture and 100 μg/ml integrase protein (10 μl) were added to each well and reacted at 37° C. for 60 min. Composition of the reaction mixture: 30 mM MOPS (3-morpholinopropanesulfonic acid), 5 mM magnesium chloride, 3 mM DTT (dithiothreitol), 0.1 mg/ml BSA (bovine serum albumin), 5% glycerol, 10% DMSO (dimethyl sulfoxide), 0.01% Tween 20.
Then, 50 nM target DNA (10 μl) was added, and the mixture was reacted at 37° C. for 10 min and washed with phosphate buffer containing 0.1% Tween 20 to stop the reaction.
Then, 100 mU/ml peroxidase labeled anti-digoxigenin antibody solution (Roche, 100 μl) was added, and the mixture was reacted at 37° C. for 60 min, followed by washing with phosphate buffer containing 0.1% Tween 20.
A peroxidase color solution (Bio Rad, 100 μl) was added and allowed to react at room temperature for 4 min. The color reaction was stopped by adding 1N sulfuric acid (100 μl). The absorbance at 450 nm was measured. […]

Structure (SMILES) | IC50 [nM]
CO[C@H](C)C(=O)NCc1cc(C(=O)O)c(=O)n2cc(Cc3cccc(Cl)c3F)ccc12 [Example 53, 7-(3-chloro-2-fluorobenzyl)-1-[((R)-2-methoxypropionylamino)methyl]-4-oxo-4H-quinolizine-3-carboxylic acid] | 10 to 100
CC(C)(C)[C@@H](CO)c1cc(C(=O)O)c(=O)n2cc(Cc3cccc(Cl)c3Cl)ccc12 [Example 64, 7-(2,3-dichlorobenzyl)-1-((R)-1-hydroxymethyl-2,2-dimethylpropyl)-4-oxo-4H-quinolizine-3-carboxylic acid] | < 10
CC(=O)NCc1cc(C(=O)O)c(=O)n2cc(Cc3cccc(Cl)c3F)ccc12 [Example 22, 1-(acetylaminomethyl)-7-(3-chloro-2-fluorobenzyl)-4-oxo-4H-quinolizine-3-carboxylic acid] | 10 to 100
CCCC(=O)NCc1cc(C(=O)O)c(=O)n2cc(Cc3cccc(Cl)c3F)ccc12 [Example 43, 1-(butyrylaminomethyl)-7-(3-chloro-2-fluorobenzyl)-4-oxo-4H-quinolizine-3-carboxylic acid] | 10 to 100
CCNC(=O)NCc1cc(C(=O)O)c(=O)n2cc(Cc3cccc(Cl)c3F)ccc12 [Example 48, 7-(3-chloro-2-fluorobenzyl)-1-[(3-ethylureido)methyl]-4-oxo-4H-quinolizine-3-carboxylic acid] | 10 to 100
O=C(NCc1cc(C(=O)O)c(=O)n2cc(Cc3cccc(Cl)c3F)ccc12)c1ccccc1 [Example 45, 1-(benzoylaminomethyl)-7-(3-chloro-2-fluorobenzyl)-4-oxo-4H-quinolizine-3-carboxylic acid] | 10 to 100
NC(=O)Cc1cc(C(=O)O)c(=O)n2cc(Cc3cccc(Cl)c3F)ccc12 [Example 26, 1-carbamoylmethyl-7-(3-chloro-2-fluorobenzyl)-4-oxo-4H-quinolizine-3-carboxylic acid] | 10 to 100
CC(C)C(CO)c1cc(C(=O)O)c(=O)n2cc(Cc3cccc(Cl)c3F)ccc12 (stereo not drawn) [Example 15, 7-(3-chloro-2-fluorobenzyl)-1-(1-hydroxymethyl-2-methylpropyl)-4-oxo-4H-quinolizine-3-carboxylic acid] | 10 to 100
CS(=O)(=O)NCc1cc(C(=O)O)c(=O)n2cc(Cc3cccc(Cl)c3F)ccc12 [Example 23, 7-(3-chloro-2-fluorobenzyl)-1-(methylsulfonylaminomethyl)-4-oxo-4H-quinolizine-3-carboxylic acid] | 1000 to 10000
CC(=O)NCC(=O)NCc1cc(C(=O)O)c(=O)n2cc(Cc3cccc(Cl)c3F)ccc12 [Example 57, 1-[(2-acetylaminoacetylamino)methyl]-7-(3-chloro-2-fluorobenzyl)-4-oxo-4H-quinolizine-3-carboxylic acid] | 100 to 1000
O=C(O)c1ccc2ccc(Cc3cccc(Cl)c3F)cn2c1=O [Example 2, 7-(3-chloro-2-fluorobenzyl)-4-oxo-4H-quinolizine-3-carboxylic acid] | 100 to 1000
CC(C)(C)[C@@H](CO)c1cc(C(=O)O)c(=O)n2cc(Cc3cccc(Cl)c3F)ccc12 [Example 16, 7-(3-chloro-2-fluorobenzyl)-1-((R)-1-hydroxymethyl-2,2-dimethylpropyl)-4-oxo-4H-quinolizine-3-carboxylic acid] | < 10
CC(C)C(=O)NCc1cc(C(=O)O)c(=O)n2cc(Cc3cccc(Cl)c3F)ccc12 [Example 44, 7-(3-chloro-2-fluorobenzyl)-1-(isobutyrylaminomethyl)-4-oxo-4H-quinolizine-3-carboxylic acid] | 10 to 100
CN(Cc1cc(C(=O)O)c(=O)n2cc(Cc3cccc(Cl)c3F)ccc12)C(=O)OC(C)(C)C [Example 41, 1-[(N-(tert-butoxycarbonyl)-N-methylamino)methyl]-7-(3-chloro-2-fluorobenzyl)-4-oxo-4H-quinolizine-3-carboxylic acid] | 10 to 100
COc1cc2c([C@H](CO)C(C)C)cc(C(=O)O)c(=O)n2cc1Cc1cccc(Cl)c1F [Example 10, 7-(3-chloro-2-fluorobenzyl)-1-((R)-1-hydroxymethyl-2-methylpropyl)-8-methoxy-4-oxo-4H-quinolizine-3-carboxylic acid] | < 10
O=C(O)c1cc(CCO)c2ccc(Cc3cccc(Cl)c3F)cn2c1=O [Example 7, 7-(3-chloro-2-fluorobenzyl)-1-(2-hydroxyethyl)-4-oxo-4H-quinolizine-3-carboxylic acid] | 10 to 100
CNCc1cc(C(=O)O)c(=O)n2cc(Cc3cccc(Cl)c3F)ccc12 [Example 21, 7-(3-chloro-2-fluorobenzyl)-1-methylaminomethyl-4-oxo-4H-quinolizine-3-carboxylic acid] | 100 to 1000
CC(C)c1cc(C(=O)O)c(=O)n2cc(Cc3cccc(Cl)c3F)ccc12 [Example 13, 7-(3-chloro-2-fluorobenzyl)-1-isopropyl-4-oxo-4H-quinolizine-3-carboxylic acid] | 10 to 100
NCc1cc(C(=O)O)c(=O)n2cc(Cc3cccc(Cl)c3F)ccc12 [Example 20, 1-aminomethyl-7-(3-chloro-2-fluorobenzyl)-4-oxo-4H-quinolizine-3-carboxylic acid hydrochloric acid] | 100 to 1000
CCOC(=O)NCc1cc(C(=O)O)c(=O)n2cc(Cc3cccc(Cl)c3F)ccc12 [Example 46, 7-(3-chloro-2-fluorobenzyl)-1-(ethoxycarbonylaminomethyl)-4-oxo-4H-quinolizine-3-carboxylic acid] | 10 to 100
COC(C)(C)C(=O)NCc1cc(C(=O)O)c(=O)n2cc(Cc3cccc(Cl)c3F)ccc12 [Example 56, 7-(3-chloro-2-fluorobenzyl)-1-[(2-methoxy-2-methylpropionylamino)methyl]-4-oxo-4H-quinolizine-3-carboxylic acid] | 100 to 1000
CCCc1cc(C(=O)O)c(=O)n2cc(Cc3cccc(Cl)c3F)ccc12 [Example 12, 7-(3-chloro-2-fluorobenzyl)-4-oxo-1-propyl-4H-quinolizine-3-carboxylic acid] | 10 to 100
O=C(O)c1cc(CNC(=O)N2CCOCC2)c2ccc(Cc3cccc(Cl)c3F)cn2c1=O [Example 47, 7-(3-chloro-2-fluorobenzyl)-1-([(morpholinocarbonyl)amino]methyl)-4-oxo-4H-quinolizine-3-carboxylic acid] | 10 to 100
O=C(CO)NCc1cc(C(=O)O)c(=O)n2cc(Cc3cccc(Cl)c3F)ccc12 [Example 39, 7-(3-chloro-2-fluorobenzyl)-1-[(2-hydroxyacetylamino)methyl]-4-oxo-4H-quinolizine-3-carboxylic acid] | 10 to 100
COCc1cc(C(=O)O)c(=O)n2cc(Cc3cccc(Cl)c3F)ccc12 [Example 19, 7-(3-chloro-2-fluorobenzyl)-1-methoxymethyl-4-oxo-4H-quinolizine-3-carboxylic acid] | 100 to 1000
O=C(O)C(=O)NCc1cc(C(=O)O)c(=O)n2cc(Cc3cccc(Cl)c3F)ccc12 [Example 50, 7-(3-chloro-2-fluorobenzyl)-1-[(oxalylamino)methyl]-4-oxo-4H-quinolizine-3-carboxylic acid] | 10 to 100
O=C(O)c1cc(NCCO)c2ccc(Cc3cccc(Cl)c3F)cn2c1=O [Example 27, 7-(3-chloro-2-fluorobenzyl)-1-(2-hydroxyethylamino)-4-oxo-4H-quinolizine-3-carboxylic acid] | 100 to 1000
